System: 299254-011-R-J1-PDC complex spheroids viability
Test: Anticancer human tumor 299254-011-R-J1-PDC patient-derived melanoma cell line growth inhibition [GQUAD]
Conditions: for IC50: curve of first compound; for viability, T/C: stronger effect = lower value; active means viability on the fitted dose curve at most 10% of control; inactive means the rest
Method in brief: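 Multi-cell-type spheroids of tumor cells with HUVEC and mesenchymal stem cells, treated with drug combinations. Concentrations descend in half-log steps from near clinical Cmax, or from 10 microM where Cmax is unknown; viability read-out.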

[1] = second compound 0.0316 µM, first compound 0.0316 µM
[2] = second compound 0.0316 µM, first compound 0.1 µM
[3] = second compound 0.0316 µM, first compound 0.316 µM
[4] = second compound 0.0316 µM, first compound 1 µM
[5] = second compound 0.0316 µM, first compound 3.16 µM
[6] = second compound 0.0316 µM, first compound 10 µM
[7] = second compound 0.1 µM, first compound 0.0316 µM
[8] = second compound 0.1 µM, first compound 0.1 µM
[9] = second compound 0.1 µM, first compound 0.316 µM
[10] = second compound 0.1 µM, first compound 1 µM
[11] = second compound 0.1 µM, first compound 3.16 µM
[12] = second compound 0.1 µM, first compound 10 µM
[13] = second compound 0.316 µM, first compound 0.0316 µM
[14] = second compound 0.316 µM, first compound 0.1 µM
[15] = second compound 0.316 µM, first compound 0.316 µM
[16] = second compound 0.316 µM, first compound 1 µM
[17] = second compound 0.316 µM, first compound 3.16 µM
[18] = second compound 0.316 µM, first compound 10 µM
[19] = second compound 1 µM, first compound 0.0316 µM
[20] = second compound 1 µM, first compound 0.1 µM
[21] = second compound 1 µM, first compound 0.316 µM
[22] = second compound 1 µM, first compound 1 µM
[23] = second compound 1 µM, first compound 3.16 µM
[24] = second compound 1 µM, first compound 10 µM
[25] = second compound 3.16 µM, first compound 0.0316 µM
[26] = second compound 3.16 µM, first compound 0.1 µM
[27] = second compound 3.16 µM, first compound 0.316 µM
[28] = second compound 3.16 µM, first compound 1 µM
[29] = second compound 3.16 µM, first compound 3.16 µM
[30] = second compound 3.16 µM, first compound 10 µM
[31] = second compound 10 µM, first compound 0.0316 µM
[32] = second compound 10 µM, first compound 0.1 µM
[33] = second compound 10 µM, first compound 0.316 µM
[34] = second compound 10 µM, first compound 1 µM
[35] = second compound 10 µM, first compound 3.16 µM
[36] = second compound 10 µM, first compound 10 µM
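Further: spheroids exposed to the agents for seven days before readout.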
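Wherever viability, T/C is given: percent viability relative to DMSO vehicle control wells = 100%.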

CCCS(=O)(=O)Nc1ccc(F)c(C(=O)c2c[nH]c3ncc(-c4ccc(Cl)cc4)cc23)c1F + CN(C)c1ccc(Nc2c3ccc(NC(=O)CCN4CCCC4)cc3nc3cc(NC(=O)CCN4CCCC4)ccc23)cc1
8990 nM: IC50 (second compound 3.16 µM)
7960 nM: IC50 (second compound 1 µM)
8910 nM: IC50 (second compound 0.316 µM)
8590 nM: IC50 (second compound 0.0316 µM)
7920 nM: IC50 (second compound 10 µM)
inactive: viability, T/C [1] 116% | viability, T/C [2] 111% | viability, T/C [3] 116% | viability, T/C [4] 103% | viability, T/C [5] 108% | viability, T/C [6] 41% | viability, T/C [7] 105% | viability, T/C [8] 104% | viability, T/C [9] 101% | viability, T/C [10] 88.4% | viability, T/C [11] 108% | viability, T/C [12] 38.5% | viability, T/C [13] 106% | viability, T/C [14] 111% | viability, T/C [15] 89.2% | viability, T/C [16] 103% | viability, T/C [17] 112% | viability, T/C [18] 43.9% | viability, T/C [19] 105% | viability, T/C [20] 111% | viability, T/C [21] 97.4% | viability, T/C [22] 88.8% | viability, T/C [23] 94.4% | viability, T/C [24] 39.5% | viability, T/C [25] 98.3% | viability, T/C [26] 95.1% | viability, T/C [27] 112% | viability, T/C [28] 97% | viability, T/C [29] 90.1% | viability, T/C [30] 45.8% | viability, T/C [31] 110% | viability, T/C [32] 146% | viability, T/C [33] 116% | viability, T/C [34] 119% | viability, T/C [35] 111% | viability, T/C [36] 34.5%
8100 nM: IC50 (second compound 0.1 µM)

CC1COCCN1c1cc(-c2ccnn2C)c2ccnc(-c3ccn[nH]3)c2n1 (stereo not drawn) + CN(C)c1ccc(Nc2c3ccc(NC(=O)CCN4CCCC4)cc3nc3cc(NC(=O)CCN4CCCC4)ccc23)cc1
inactive: viability, T/C [1] 84.5% | viability, T/C [2] 67.2% | viability, T/C [3] 35% | viability, T/C [4] 17.3% | viability, T/C [5] 13% | viability, T/C [6] 11.2% | viability, T/C [7] 85.5% | viability, T/C [8] 74.9% | viability, T/C [9] 29.6% | viability, T/C [10] 20% | viability, T/C [11] 14.2% | viability, T/C [12] 13% | viability, T/C [13] 91.8% | viability, T/C [14] 77.1% | viability, T/C [15] 33.4% | viability, T/C [16] 19% | viability, T/C [17] 15.1% | viability, T/C [18] 11.8% | viability, T/C [19] 107% | viability, T/C [20] 71.3% | viability, T/C [21] 36.1% | viability, T/C [22] 21.2% | viability, T/C [23] 14.9% | viability, T/C [24] 13.8% | viability, T/C [25] 102% | viability, T/C [26] 73.7% | viability, T/C [27] 37% | viability, T/C [28] 24.5% | viability, T/C [29] 17.9% | viability, T/C [30] 15.7% | viability, T/C [31] 80.6% | viability, T/C [32] 74.4% | viability, T/C [33] 37.3% | viability, T/C [34] 23.6% | viability, T/C [35] 18.8% | viability, T/C [36] 16.9%
202 nM: IC50 (second compound 1 µM)
189 nM: IC50 (second compound 0.1 µM)
206 nM: IC50 (second compound 0.316 µM)
215 nM: IC50 (second compound 3.16 µM) | IC50 (second compound 10 µM)
185 nM: IC50 (second compound 0.0316 µM)

CC1COCCN1c1cc(-c2ccnn2C)c2ccnc(-c3ccn[nH]3)c2n1 (stereo not drawn) + Cc1[nH]c2ccc(F)cc2c1-c1nc2c3cccnc3c3ncccc3c2[nH]1
88.9 nM: IC50 (second compound 10 µM)
180 nM: IC50 (second compound 0.0316 µM)
177 nM: IC50 (second compound 0.1 µM)
245 nM: IC50 (second compound 0.316 µM)
187 nM: IC50 (second compound 3.16 µM)
inactive: viability, T/C [1] 111% | viability, T/C [2] 65% | viability, T/C [3] 36.1% | viability, T/C [4] 19.6% | viability, T/C [5] 21.5% | viability, T/C [6] 13.1% | viability, T/C [7] 80.3% | viability, T/C [8] 70.3% | viability, T/C [9] 29.1% | viability, T/C [10] 21.6% | viability, T/C [11] 17% | viability, T/C [12] 12.9% | viability, T/C [13] 90% | viability, T/C [14] 88.4% | viability, T/C [15] 38.8% | viability, T/C [16] 22.4% | viability, T/C [17] 14.2% | viability, T/C [18] 15% | viability, T/C [19] 93.1% | viability, T/C [20] 70.4% | viability, T/C [21] 36.5% | viability, T/C [22] 21.9% | viability, T/C [23] 16.4% | viability, T/C [24] 17.4% | viability, T/C [25] 84.5% | viability, T/C [26] 71.8% | viability, T/C [27] 31.8% | viability, T/C [28] 14.5% | viability, T/C [29] 12.2% | viability, T/C [30] 15.2% | viability, T/C [31] 74.1% | viability, T/C [32] 47% | viability, T/C [33] 26.7% | viability, T/C [34] 17.4% | viability, T/C [35] 12.1% | viability, T/C [36] 15.4%
201 nM: IC50 (second compound 1 µM)

C#Cc1c(F)ccc2cc(O)cc(-c3ncc4c(N5CC6CCC(C5)N6)nc(OCC56CCCN5CC(F)C6)nc4c3F)c12 (stereo not drawn) + CN(C)c1ccc(Nc2c3ccc(NC(=O)CCN4CCCC4)cc3nc3cc(NC(=O)CCN4CCCC4)ccc23)cc1
> 10000 nM: IC50 (second compound 0.0316 µM) | IC50 (second compound 0.1 µM) | IC50 (second compound 0.316 µM) | IC50 (second compound 1 µM) | IC50 (second compound 3.16 µM) | IC50 (second compound 10 µM)
inactive: viability, T/C [1] 85.8% | viability, T/C [2] 92.7% | viability, T/C [3] 101% | viability, T/C [4] 105% | viability, T/C [5] 104% | viability, T/C [6] 78.9% | viability, T/C [7] 114% | viability, T/C [8] 96.4% | viability, T/C [9] 94.8% | viability, T/C [10] 101% | viability, T/C [11] 85.2% | viability, T/C [12] 66% | viability, T/C [13] 113% | viability, T/C [14] 114% | viability, T/C [15] 82.2% | viability, T/C [16] 79.3% | viability, T/C [17] 93.5% | viability, T/C [18] 77% | viability, T/C [19] 85.4% | viability, T/C [20] 105% | viability, T/C [21] 76.7% | viability, T/C [22] 99.7% | viability, T/C [23] 89.2% | viability, T/C [24] 83.9% | viability, T/C [25] 110% | viability, T/C [26] 123% | viability, T/C [27] 97.3% | viability, T/C [28] 112% | viability, T/C [29] 73.6% | viability, T/C [30] 69.9% | viability, T/C [31] 100% | viability, T/C [32] 94.8% | viability, T/C [33] 101% | viability, T/C [34] 87.8% | viability, T/C [35] 85.4% | viability, T/C [36] 72.5%
